“And” between values parts separate entries of the source, which are not always exact repeats. Equal entries are not always repeated. Where two headings read alike, the source gives them in different places.
Tests used:
[1] = system: human umbilical endothelia cells (HUVECs); test: Annexin V binding to HUVECs after 24 hrs culture with high aPLs titer serum pre-incubated with test substance, flow cytometry; assay type: cell-based; conditions: for Mean % of APS, Av / Median % of APS, Av: average of three; for Mean % of APS, Av / Median % of APS, Av / Mean % of APS / Median % of APS: 24 hrs culture; for Mean % of APS / Median % of APS: single experiments; for Geo Mean (fluorescence) / Mean (fluorescence) / Median (fluorescence) / Peak Ch / % Gated (Annexin V positive region): file '100' 24 hrs on HUVEC; for Effect on Annexin V binding to endothelial cells: preincubation of serum known to decrease binding
Protocol: Cryopreserved pooled human umbilical venous endothelial cells (HUVECs) at passage 2 were purchased from Cascade Biologics, Inc. (Portland, Oreg., USA) the cultures were maintained in EGM™ phenol red-free medium (Clonetics, San Diego, Calif., USA), containing 2% of fetal bovine serum and supplements. The cells were incubated in 75 cm2 flasks (TPP, AG, Trasadingen, Switzerland) under humidified 5% CO2 in 37° C. conditions. All experiments were performed at passage 3 to 4. HUVECs were seeded at 2×10^4 cells/ml density in 12-well plates (NUNC, Inc, Naperville, Ill., USA) for flow cytometry analysis; at density of 1×10^4 cells/well/100 μl in 96-well plate (TPP) for MTT assay; at 8×10^3 cells/ml. density in 24-well plates (NUNC) for DNA fragmentation ELISA. After allowing 12-24 hours for attachment and careful washing with serum-free medium (SFM), the cells were made quiescent in SFM for at least 12 hrs prior to treatment. Heparin-preserved plasma from the study groups was added to the monolayer at concentration of 10% in SFM.
The cells were harvested non-enzymatically with Cell Dissociation Solution (CDS; Sigma-Aldrich, St. Louis, Mo., USA). HUVECs were carefully pooled with supernatants, to exclude selective loss of detached floating EC, and centrifuged at 1200 rpm for 7 min. After resuspension in 100 μl of Annexin V-binding buffer (Molecular Probes Inc, Eugene, Oreg., USA) samples were stained with 5 mg/ml of Annexin V-FITC (Mol. Probes) and incubated for 15 min on ice. Shortly before acquisition 1 mg/ml of propidium iodide (PI; R&DSystems Europe Ltd, Abingdon, UK) was added. Analysis was performed on a FACScan flow cytometer (BD Biosciences, San Jose, Calif., USA) equipped with CellQuest™ software. During acquisition a gate was set to exclude events smaller than 230 on linear FCS and SSC scale. For each sample 10000 events were collected.
Heparin-preserved plasma with high capacity to inhibit Annexin V binding was added to HUVECs monolayer at concentration of 10% in SFM. After 24 hrs cells were harvested with Cell Dissociation Solution (CDS; Sigma-Aldrich, St. Louis, Mo., USA) and carefully pooled with supernatants, to exclude selective loss of detached floating cells, centrifugation at 1200 rpm for 7 min followed. After resuspension in 100 μl of annexin V-binding buffer (Molecular Probes Inc, Eugene, Oreg., USA) samples were stained with 2 μl of 5 mg/ml annexin V-FITC (Molecular Probes) and incubated for 15 min on ice. Shortly before acquisition 1 mg/ml of propidium iodide (PI; a vital dye; R&DSystems Europe Ltd, Abingdon, UK) was added. Analysis was performed as described above.
The frequency of HUVECs positive for Annexin V staining was determined either as percentage of annexin V^+/PI^− cells on a bivariate dot plot or percentage of Annexin V^+ cells based on a histogram. Annexin V-binding to HUVECs in the presence of serum known to decrease binding and preincubated with IVIG was determined.

[2] = Serum binding to antigen after preincubation of serum with antigen; conditions: preincubation of serum with high capacity to induce decreased binding
From the text: Polysorp F96 microtiter immuno-plates were purchased from Nunc (Roskilde Denmark), PC-BSA (Phosphorylcholine-Bovine Serum Albumin) was purchased from Biosearch Technologies, INC (USA). Bovine serum albumin (BSA), Alkaline phosphatase conjugated goat anti-human IgG (r-chain specific), Alkaline phosphatase conjugated goat anti-human IgM (u-chain specific), PNPP(Alkaline phosphatase substrate), were obtained from Sigma (St. Louis, Mo., USA). For example, IgG and IgM antibodies to PC-BSA were determined by enzyme-linked immunosorbent assay (ELISA). Pooled serum from 17 antiphospholipid syndrome patients was used as an internal standard and tested on every plate. […] F96 microtiter polysorp plate was therefore coated with PC-BSA (10 μg/ml) 50 μl/well in PBS. Coated plates were incubated overnight at 4° C. After five washings with PBS, the plates were blocked with 2% BSA-PBS for 2 h at room temperature and washed as described above. Serum samples were diluted (1:30) in 0.2% BSA-PBS and added at 50 μl/well.

[3] = humans; cited from earlier work
[4] = experimental animals; cited from earlier work

Row | Compound | Mean % of APS, Av ([1]; 10 μg/ml) | Median % of APS, Av ([1]; 10 μg/ml) | Mean % of APS ([1]; 10 μg/ml) | Median % of APS ([1]; 10 μg/ml) | Mean % of APS, Av ([1]; 100 μg/ml) | Median % of APS, Av ([1]; 100 μg/ml) | Mean % of APS ([1]; 100 μg/ml) | Median % of APS ([1]; 100 μg/ml) | Geo Mean (fluorescence) ([1]; all events (100.00 % gated)) | Mean (fluorescence) ([1]; all events (100.00 % gated)) | Median (fluorescence) ([1]; all events (100.00 % gated)) | Peak Ch ([1]; all events (100.00 % gated)) | % Gated (Annexin V positive region) ([1]; second histogram region) | Geo Mean (fluorescence) ([1]; second histogram region) | Mean (fluorescence) ([1]; second histogram region) | Median (fluorescence) ([1]; second histogram region) | Peak Ch ([1]; second histogram region) | Effect on Annexin V binding to endothelial cells [1] | Serum binding to antigen [2] | further results
1 | lysophosphatidylcholine [Lyso PC] | 150 % of APS | 146 % of APS | 123.6 % of APS and 156.9 % of APS and 169.5 % of APS | 121.88 % of APS and 138.23 % of APS and 178.5 % of APS | 156 % of APS | 155 % of APS | 158.1 % of APS and 114.7 % of APS and 195.12 % of APS | 175.39 % of APS and 115.4 % of APS and 174.65 % of APS | 62.95 | 275.37 | 153.99 | 1 | 67.03% | 268.96 | 408.50 | 352.27 | 453 | restored Annexin V binding | decreased serum binding to antigen | 
2 | C[N+](C)(C)CCOP(=O)(O)O [PC, phosphorylcholine] |  |  |  |  |  |  |  |  |  |  |  |  |  |  |  |  |  | no significant effect |  | 
3 | phosphatidylserine |  |  |  |  |  |  |  |  |  |  |  |  |  |  |  |  |  | restored Annexin V binding | decreased serum binding to antigen | 
4 | Annexin V: Annexin V protein, binds calcium and negatively charged phospholipids |  |  |  |  |  |  |  |  |  |  |  |  |  |  |  |  |  |  |  | half-life in the circulation [3]: short half-life; half-life in the circulation [4]: 5 to 15 min
5 | tetanus toxoid |  |  |  |  |  |  |  |  | 47.62 | 155.14 | 113.42 | 1 | 66.69% | 173.93 | 230.12 | 212.88 | 222 |  |  | 
6 | CCCCCCCCCCCCCCCCOC[C@H](COP(=O)([O-])OCC[N+](C)(C)C)OC(C)=O [PAF] | 135 % of APS | 132 % of APS | 100 % of APS and 155.6 % of APS and 149.8 % of APS | 99 % of APS and 134 % of APS and 164 % of APS | 137 % of APS | 136 % of APS | 151 % of APS and 122 % of APS and 139 % of APS | 145 % of APS and 116 % of APS and 147 % of APS |  |  |  |  |  |  |  |  |  | restored Annexin V binding | decreased serum binding to antigen | 

Source: patent US20080044404A1, “Annexin V for Preventing Atherothrombosis and Plaque Rupture” (priority 2004, published 2008)
